Data taken from US9023853B2, “Janus kinase 2 (JAK2) inhibitor for the treatment of lupus” (Cephalon, Inc., priority 2010, dated 2015).
Where “and” joins values, the source holds several entries; their conditions need not be identical. Identical values can stand only once. Entries after “also recorded” stand apart in the source; their conditions may differ.

Experiments:
Format in all cases: in vivo, mouse
NZM mice [1] = assay: Urinalysis total urine protein (proteinuria) in NZM mice; settings: Dex 1.5 mpk 3 × wk
Description: Urine samples were acid precipitated for total protein recovery and analysis. Samples for which enough urine remained were used for Uristix® leukouria analysis (MRL/lpr study only). Briefly, a standard protein solution was prepared from normal mouse sera and was used as a standard for mouse urinary protein assay by turbidity. Standard preparation was as follows: 0, 5, 10, 15, 20, 30, 40, and 50 μL of a 4 mg/mL mouse sera standard protein solution as provided in the kit were added in duplicate into two columns. PBS was added to individual wells to adjust the final volume to 50 μL. For urine sample preparation, urine samples were centrifuged at 9880×g for 3 minutes using a tabletop micro-centrifuge. Urine supernatant (1-50 μL) was added in duplicate. PBS was added to adjust the volume to 50 μL total. For the turbidity assay: 25 μL of 0.1 N HCl was added into blank columns and 250 μL of 3% sulfosalicyclic acid into the test columns. The microplate was incubated for 10 minutes at RT and plates were read using an ELISA reader with single beam at 450 nm. For the Uristix® strip assay, strips were laid out and labeled. Twenty microliters of urine were placed onto each test strip square and incubated for at least 30 seconds before the result was recorded. For all total urine analysis plate-based assays, values below the limit of detection set by the lowest point along the standard or set by the manufacturer were considered out of range and were not estimated, but assumed the lowest point along the standard curve for that particular assay.
(§1) Age mated, female, NZM or NZW/LacJ, mice were matured for the study of lupus nephritis for a total of 7 months or 210 days at which time urine was collected for proteinuria detection. Mice with 0.5-1.0 mg/ml of urine protein as determined by an optical density-based total protein precipitation assay and cross-checked for 30-300 mg/dl of protein as determined by a stick assay were considered proteinuria positive and selected for study entry. Groups were normalized to contain a Gaussian distribution of proteinuria positive animals (i.e., ⅓ low proteinuria, ⅓ medium, ⅓ high) then randomized between groups before ear marking and taking baseline measures including urine and serum collections. A total of five mice from the total population were randomly selected for baseline kidney histology evaluation. Treatments and tests for each group are as described in FIG. 12. Briefly, with a minimum of 10 mice per group, COMPOUND A was administered at 100 mg/kg or 55 mg/kg, both twice a day and orally. […] Vehicle included 3% DMSO, 10% Solutol and 87% PBS. […] End-stage lupus nephritis was evaluated by histopathology and scored by a board certified pathologist for the assessment of total renal damage in diseased animals using the scoring method described by Smith et al (Smith, Dong et al. 2007). […] Day-98 or “end of treatment/study” represents 310 days of age for the NZM animals.

NZM mice [2] = assay: Renal histopathology kidney IC-GN scoring in NZM mice
Description: For histological analyses, the left kidney and lung (NZM model only) from each animal was removed and fixed in 10% buffered neutral 10% formalin (EMD) for 48 hours on an orbital rocker at 25° C., then washed overnight with running dH2O and stored in 70% ethanol at 4° C. until ready to be processed. Kidney stains used for histological analyses included hematoxylin and eosin (H&E), Periodic Acid Schiff (PAS) and Trichrome stains (Wistar Institute, Philadelphia, Pa.). All 3 stained sections were used by the pathologist for scoring purposes. All histological scoring was performed blinded and by an independent board certified veterinary medical pathologist (Julie Engiles, VMD, DACVP; University of Pennsylvania). Multiple stains were used to determine score values. Images in FIGS. 8, 19 and 20 show worst affected area of section selected blindly by the pathologist.
Kidney IC-GN Scoring Method (Smith, Dong et al. 2007):
1. […]
2. […]
3. […]
4. […]
5. […]
6. […]
7. […]
Also considered effacement of the glomerular tuft by PAS positive, Trichrome negative material necrosis. • Glomerular sclerosis was defined by increased fibroplasia or fibrosis within the glomerular tuft or capsule. […] Pharmacodynamic (PD) Analysis
as §1

NZM mice [3] = assay: Survival in NZM lupus model; settings: Dex 1.5 mpk 3 × wk
Description: Six week old lupus-prone, female, MRL/lpr (Jackson Labs, #000485) and non-lupus prone control MRL/MpJ (Jackson Labs, #000486) mice were obtained from Jackson Laboratories (Bar Harbor, Me.) at 6-weeks of age. Spontaneous SLE-prone NZBWF1/J (NZM) (catalog no. 100008) female mice and non-lupus prone (within time from of experiment) NZW/LacJ (catalog no. 001058) female mice were obtained from Jackson Laboratories (Bar Harbor, Me.) at 15-weeks of age. All mice were maintained on a […] light/dark cycle, with food and water available ad libitum. All experimental animal procedures were approved by and in accordance to the regulations of the Institutional Animal Care and Use Committee (IACUC) of Cephalon, Inc; approved IACUC protocol #03-040 and #03-03-041.
The NZM strain acts as a mouse model of genetically-driven, progressive, systemic lupus erythematosus (SLE). The evolution of the disease in NZM mice is characterized by an abnormal polyclonal B cell activation with a high production of various autoantibodies, including those directed against DNA and other nuclear antigens, and against cytoskeleton proteins. Elevated circulating immune complexes can lead to fatal glomerulonephritis in older mice.
as §1

[4] = NZM individual mouse, Dex 1.5 mpk 3 × wk
[5] = NZM kidney score (grade 0-5), mean, Dex 1.5 mg/kg

SMILES: C[C@@H]1C[C@H]2[C@@H]3CCC4=CC(=O)C=C[C@]4(C)[C@@]3(F)[C@@H](O)C[C@]2(C)[C@@]1(O)C(=O)CO [Dex, dexamethasone, reference compound]
- I: Proteinuria, MEAN (NZM mice [1]; NZM group mean): 7.86 mg/mL
- I: Proteinuria (NZM mice [1]; NZM individual mouse): 8.43 mg/mL and 10.19 mg/mL (2×) and 11.02 mg/mL and 8.47 mg/mL and 0.35 mg/mL and 7.16 mg/mL and 0.55 mg/mL and 12.36 mg/mL and 9.89 mg/mL
- B: Glomerular Cellularity (NZM mice [2]; [4]): ++ (‘++’ moderate (3)); also recorded: + (‘+’ mild (2)); also recorded: +++ (‘+++’ high (4))
- C: Glomerular Necrosis (NZM mice [2]; [4]): ++ (‘++’ moderate (3)); also recorded: + (‘+’ mild (2)); also recorded: +++ (‘+++’ high (4))
- D: Glomerular Sclerosis (NZM mice [2]; [4]): +++ (‘+++’ high (4)); also recorded: − (‘−’ no disease (1)); also recorded: ++ (‘++’ moderate (3)); also recorded: ++++ (‘++++’ severe disease (5))
- E: Interstitial Infiltration (NZM mice [2]; [4]): ++ (‘++’ moderate (3)); also recorded: − (‘−’ no disease (1)); also recorded: +++ (‘+++’ high (4))
- F: Tubular Atrophy (NZM mice [2]; [4]): +++ (‘+++’ high (4)); also recorded: − (‘−’ no disease (1))
- G: Interstitial Fibrosis (NZM mice [2]; [4]): +++ (‘+++’ high (4)); also recorded: ++ (‘++’ moderate (3)); also recorded: − (‘−’ no disease (1))
- H: Vasculitis (NZM mice [2]; [4]): + (‘+’ mild (2)); also recorded: − (‘−’ no disease (1)); also recorded: +++ (‘+++’ high (4))
- Glomerular Cellularity (NZM mice [2]; [5]): 3.0
- Glomerular Necrosis (NZM mice [2]; [5]): 3.0
- Glomerulosclerosis (NZM mice [2]; [5]): 3.42
- Interstitial Fibrosis (NZM mice [2]; [5]): 2.71
- Interstitial Infiltration (NZM mice [2]; [5]): 2.71
- Tubular Atrophy (NZM mice [2]; [5]): 3.14
- Vasculitis (NZM mice [2]; [5]): 2.42
- Age (d), MEAN (NZM mice [3]; NZM group mean): 261.4 days
- Age (NZM mice [3]; NZM individual mouse (survival; EOS = 310 days of age)): 291 d (2×) and 240 d (3×) and 268 d and 310 d (2×)
